Test results published in ChEMBL document CHEMBL1142398, “Chemical stability of the peroxide bond enables diversified synthesis of potent tetraoxane antimalarials” (J Med Chem, 2008).

Experiments:
[1] = Metabolic stability assessed as half life in human liver microsomes; assay type: ADME, Microsome
[2] = Metabolic stability assessed as half life in mouse liver microsomes; assay type: ADME, Microsome
Plasmodium falciparum [3] = assay: microbe, parasite or virus in culture; conditions: D6
Description: Antimalarial activity against Plasmodium falciparum D6

Plasmodium falciparum [4] = assay: microbe, parasite or virus in culture; conditions: W2
Description: Antimalarial activity against Plasmodium falciparum W2

Plasmodium falciparum [5] = assay: microbe, parasite or virus in culture; conditions: TM91C235
Description: Antimalarial activity against multidrug-resistant Plasmodium falciparum TM91C235

Plasmodium berghei [6] = assay: Antimalarial activity against Plasmodium berghei KBG173 infected CD1 mice (Mus musculus) at 300 mg/kg/day subcutaneous dose as survival time after 3-5 days; assay type: functional
Plasmodium berghei [7] = assay: Antimalarial activity against Plasmodium berghei KBG173 infected CD1 mice (Mus musculus) at 150 mg/kg/day subcutaneous dose as survival time after 3-5 days; assay type: functional
Plasmodium berghei [8] = assay: Antimalarial activity against Plasmodium berghei KBG173 infected CD1 mice (Mus musculus) at 37.5 mg/kg/day subcutaneous dose as survival time after 3-5 days; assay type: functional
Plasmodium berghei [9] = assay: Antimalarial activity against Plasmodium berghei KBG173 infected CD1 mice (Mus musculus) at 9.3 mg/kg/day subcutaneous dose as survival time after 3-5 days; assay type: functional
Plasmodium berghei [10] = assay: Antimalarial activity against Plasmodium berghei KBG173 infected CD1 mice (Mus musculus) on subcutaneous dose after 3-5 days; assay type: functional
Plasmodium berghei [11] = assay: Antimalarial activity against Plasmodium berghei KBG173 infected CD1 mice (Mus musculus) at 320 mg/kg/day peroral dose as survival time after 3-5 days; assay type: functional; conditions: route oral
Plasmodium berghei [12] = assay: Antimalarial activity against Plasmodium berghei KBG173 infected CD1 mice (Mus musculus) at 80 mg/kg/day peroral dose as survival time after 3-5 days; assay type: functional; conditions: route oral
Plasmodium berghei [13] = assay: Antimalarial activity against Plasmodium berghei KBG173 infected CD1 mice (Mus musculus) at 20 mg/kg/day peroral dose as survival time after 3-5 days; assay type: functional; conditions: route oral

Row | SMILES | half-life [1] | half-life [2] | IC50 (Plasmodium falciparum [3]) | IC90 (Plasmodium falciparum [3]) | IC50 (Plasmodium falciparum [4]) | IC90 (Plasmodium falciparum [4]) | IC50 (Plasmodium falciparum [5]) | IC90 (Plasmodium falciparum [5]) | Survival (Plasmodium berghei [6]) | Survival (Plasmodium berghei [7]) | Survival (Plasmodium berghei [8]) | Survival (Plasmodium berghei [9]) | MCD (Plasmodium berghei [10]) | Survival (Plasmodium berghei [11]) | Survival (Plasmodium berghei [12]) | Survival (Plasmodium berghei [13])
1 | c1ccc(CNCC2CCC3(CC2)OOC2(CCCCC2)OO3)cc1 | 42 min | 3.5 min | 13.8 nM | 34.5 nM | 8.19 nM | 20.6 nM | 13.9 nM | 39.5 nM |  |  |  |  |  |  |  | 
2 | CC(=O)O[C@H]1C[C@H]2[C@@H]([C@H](OC(C)=O)C[C@@H]3CC4(CC[C@@]32C)OOC2(CCCCC2)OO4)[C@@H]2CC[C@H]([C@H](C)CCCNCCN(C)C)[C@@]12C | > 60 min | > 60 min | 46.8 nM | 110 nM | 18.5 nM | 65.4 nM | 49.7 nM | 88.1 nM |  |  |  |  |  |  |  | 
3 | CC(C)NCC1CCC2(CC1)OOC1(CCCCC1)OO2 | 38.7 min | 9.9 min | 9.4 nM | 14.5 nM | 7.54 nM | 22.9 nM | 9.27 nM | 16.7 nM | 23.2 days | 23.6 days | 18.2 days | 11.8 days |  |  |  | 
4 | O=C(O)C1CCC2(CC1)OOC1(CCCCC1)OO2 |  |  | 429 nM | 467 nM | 413 nM | 520 nM | 411 nM | 523 nM |  |  |  |  |  |  |  | 
5 | CCN(CC)CCCC(C)Nc1ccnc2cc(Cl)ccc12 (stereo not given) [CHLOROQUINE] |  |  |  | 17.6 nM |  | 1020 nM |  | 345 nM |  |  |  |  |  |  |  | 
6 | C[C@@H]1CC[C@H]2[C@@H](C)C(=O)O[C@@H]3O[C@@]4(C)CC[C@@H]1[C@]32OO4 [ARTEMISININ] |  |  | 9 nM | 12.8 nM | 6.7 nM | 11.5 nM | 13 nM | 17.4 nM |  |  |  |  |  |  |  | 
7 | C1CCC(NCC2CCC3(CC2)OOC2(CCCCC2)OO3)CC1 | 15.9 min | 43.9 min | 11.2 nM | 14 nM | 6.17 nM | 17.7 nM | 10.8 nM | 13.9 nM | >31 days | 29 days | 22.6 days | 13.4 days | <=37.5 mg/kg/day |  |  | 
8 | CN(C)CCNC(=O)C1CCC2(CC1)OOC1(CCCCC1)OO2 | > 60 min | > 60 min | 11.2 nM | 15.1 nM | 9.72 nM | 17.9 nM | 7.24 nM | 12.8 nM |  |  |  |  |  | 17.4 days | 7.6 days | 7.2 days
9 | CC(=O)O[C@H]1C[C@H]2[C@@H]([C@H](OC(C)=O)C[C@@H]3CC4(CC[C@@]32C)OOC2(CCCCC2)OO4)[C@@H]2CC[C@H]([C@H](C)CCC(=O)O)[C@@]12C |  |  | 30.6 nM |  | 19.2 nM |  |  |  |  |  |  |  |  |  |  | 
10 | COC(=O)C1CCC2(CC1)OOC1(CCCCC1)OO2 |  |  | 29.2 nM | 83.9 nM | 40.4 nM | 62.5 nM | 27 nM | 110 nM |  |  |  |  |  |  |  | 
11 | O[C@@H](c1cc(C(F)(F)F)nc2c(C(F)(F)F)cccc12)[C@H]1CCCCN1 [MEFLOQUINE] |  |  | 7.34 nM | 19.5 nM |  | 9.45 nM | 22.4 nM | 50.1 nM |  |  |  |  |  |  |  | 
